From US6669951B2, “Compositions and methods for enhancing drug delivery across and into epithelial tissues” (CellGate, Inc., priority 1999, dated 2003)
Peptide text beside a SMILES is read from it. * marks the point of attachment. FITC = O=C1OC2(c3ccc(O)cc3Oc3cc(O)ccc32)c2ccc(NC(=S)*)cc21; Ahx = NCCCCCC(=O)O

Experiments:
skin of nude mice = test: Penetration of biotinylated conjugates into skin of nude mice (streptavidin staining); conditions: 1 mM-100 μM in PBS, nude mice, thirty, sixty, 120 minutes
Description: Samples (100 μl) were applied as a liquid without excipient, prevented from dispersing by a Vaseline™ barrier, and allowed to penetrate for fifteen minutes. At the end of this period the animal was sacrificed, the relevant sections of skin were excised, embedded in mounting medium (OCT), and frozen. Frozen sections (5 microns) were cut using a cryostat, collected on slides, and stained with fluorescently labeled streptavidin (Vector Laboratories, Burlingame, Calif.). The slides were fixed in acetone at 4° C. for ten minutes, air dried, soaked in PBS for five minutes, blocked with normal goat serum for five minutes, and washed with PBS for five minutes. The section was stained by incubation with fluorescently labeled streptavidin at 30 μg/ml for thirty minutes, washed with PBS, counterstained with propidium iodide (1 μg/ml) for two minutes, and the section was mounted with Vectashield™ mounting media. Slides were analyzed by fluorescent microscopy. Parallel studies were done using streptavidin-horse radish peroxidase rather than fluorescein-streptavidin. The biotinylated peptide was visualized by treatment of the sections with the horseradish peroxidase substrate diaminobenzadine, and visualization with light microscopy.
Alternatively, sample (100 μl) was applied as a liquid without excipient and prevented from evaporating by wrapping plastic wrap over the sample sealed with Vaseline™. […] At the end of this period animal was sacrificed, the relevant section of skin was excised, embedded in mounting medium (OCT) and frozen. […] Slides were analyzed by fluorescent microscopy.
At the end of this period animal was sacrificed, the relevant section of skin was excised, embedded in mounting medium (OCT) and frozen. […] Slides were analyzed by fluorescent microscopy
(§1) At the end of this period animal was sacrificed, the relevant section of skin was excised, embedded in mounting medium (OCT) and frozen. […] Slides were analyzed by fluorescent microscopy.
as §1

Jurkat cells [1] = test: Cellular uptake kinetics assay (Michaelis-Menton); format: cell-based, human; set-up: Vmax: unit not given here; conditions: for Km / Vmax / rate of entering cells, fold faster than Tat47-59: Jurkat cells; for Km / Vmax: incubation 30, 60, 120, 240 seconds, 3° C.; for rate of entering cells, fold faster than Tat47-59: from Km values
Description: (§2) The accuracy of this method for determining concentration was established by weighing selected samples and dissolving them in a known amount of PBS buffer. The concentrations determined by UV spectroscopy correlated with the amounts weighed out manually. Jurkat cells (human T cell line), murine B cells (CH27), or human PBL cells were grown in 10% fetal calf serum and DMEM and each of these were used for cellular uptake experiments. […] The microtiter plates were centrifuged and the cells were isolated, washed with cold PBS (3×250 μL), incubated with 0.05% trypsin/0.53 mM EDTA at 37° C. for 5 min, washed with cold PBS, and resuspended in PBS containing 0.1% propidium iodide. The cells were analyzed using fluorescent flow cytometry (FACScan, Becton Dickinson) and cells staining with propidium iodide were excluded from the analysis. The data presented is the mean fluorescent signal for the 5000 cells collected.
Cellular Uptake Kinetics Assay. The assays were performed as previously described except the cells were incubated for 0.5, 1, 2, and 4 min at 4° C. in triplicate in 2% FCS/PBS (50 μl) in microtiter plates (96 well). The reactions were quenched by diluting the samples into 2% FCS/PBS (5 mL). The assays were then worked up and analyzed by fluorescent flow cytometry as previously described.
The rates of cellular uptake were determined after incubation (3° C.) of the peptides in Jurkat cells for 30, 60, 120, and 240 seconds (Table 1).

Jurkat cells [2] = test: FACS cellular uptake assay; format: cell-based, human; conditions: for cellular uptake relative to Tat49-57: Jurkat cells, 2% FCS; for additional loss of intracellular fluorescence from the one amino acid truncated analogs: further deletion of one residue
Description: as §2
Inhibition of Cellular Uptake with Sodium Azide. The assays were performed as previously described with the exception that the cells used were preincubated for 30 min with 0.5% sodium azide in 2% FCS/PBS buffer prior to the addition of fluorescent peptides and the cells were washed with 0.5% sodium azide in PBS buffer. All of the cellular uptake assays were run in parallel in the presence and absence of sodium azide.
To determine the structural requirements for the cellular uptake of short arginine-rich peptides, a series of fluorescently-labeled truncated analogues of Tat49-57 were synthesized using standard solid-phase chemistry. See, e.g., Atherton, E. et al. SOLID-PHASE PEPTIDE […] (IRL: Oxford, Engl. 1989). A fluorescein moiety was attached via an aminohexanoic acid spacer on the amino termini. The ability of these fluorescently labeled peptides to enter Jurkat cells was then analyzed using fluorescent activated cell sorting (FACS). The peptide constructs tested were Tat49-57 (Fl-ahx-[…]; SEQ ID NO:8): Tat49-56 (Fl-ahx-[…]; SEQ ID NO:9), Tat49-55 (Fl-ahx-RKKRRQR; SEQ ID NO: 10), Tat50-57 (Fl-ahx-[…]; SEQ ID NO: 11), and Tat51-57 (Fl-ahx-KRRQRRR; SEQ ID NO: 12). Differentiation between cell surface binding and internalization was accomplished throughout by running a parallel set of assays in the presence and absence of sodium azide. Because sodium azide inhibits energy-dependent cellular uptake but not cell surface binding, the difference in fluorescence between the two assays provided the amount of fluorescence resulting from internalization.

[3] = tested on: ear inflammation in Balb/c mice; test: Murine contact dermatitis (DNFB), ear inflammation; format: in vivo, mouse
Description: Balb/c (6-7 weeks) mice were painted on the abdomen with 100 μl of 0.7% DNFB in acetone olive oil (95:5). Three days later both ears of the animals were restimulated with 0.5% DNFB in acetone. […] Ear inflammation was measured 24 hours after restimulation using a spring loaded caliper. The percent reduction of inflammation was calculated using the following formula […], where t=thickness of the treated ear, n=the thickness of a normal untreated ear, and u=thickness of an inflamed ear without any treatment. N=20 animals in each group.

Q: How did the “penetration of drug conjugates into skin” value (skin of nude mice) turn out when `CC(=O)O[C@H]1C(=O)[C@@]2(C)[C@H]([C@H](OC(=O)c3ccccc3)[C@]3(O)C[C@H](OC(=O)[C@H](OC(=O)NCCCC[C@H](NC(=O)[C@@H](CCCNC(=N)N)NC(=O)[C@@H](CCCNC(=N)N)NC(=O)[C@@H](CCCNC(=N)N)NC(=O)[C@@H](CCCNC(=N)N)NC(=O)[C@@H](CCCNC(=N)N)NC(=O)CCCCCNC(=O)CCCC[C@@H]4SC[C@@H]5NC(=O)N[C@@H]54)C(N)=O)[C@@H](NC(=O)c4ccccc4)c4ccccc4)C(C)=C1C3(C)C)[C@]1(OC(C)=O)CO[C@@H]1C[C@@H]2O` [B-aca-r5-K-taxol] was run?
A: Its value is “very little uptake was seen”.

Q: What does the source list for `CC[C@H](C)[C@H](NC(=O)[C@H](CCCCN)NC(=O)[C@@H](NC(=O)[C@H](CCC(N)=O)NC(=O)[C@H](CCCNC(=N)N)NC(=O)CCCCCNC(=S)Nc1ccc2c(c1)C(=O)OC21c2ccc(O)cc2Oc2cc(O)ccc21)[C@@H](C)CC)C(=O)N[C@@H](Cc1c[nH]c2ccccc12)C(=O)N[C@@H](Cc1ccccc1)C(=O)N[C@@H](CCC(N)=O)C(=O)N[C@@H](CC(N)=O)C(=O)N[C@@H](CCCNC(=N)N)C(=O)N[C@@H](CCCNC(=N)N)C(=O)N[C@@H](CCSC)C(=O)N[C@@H](CCCCN)C(=O)N[C@@H](Cc1c[nH]c2ccccc12)C(=O)N[C@@H](CCCCN)C(=O)N[C@@H](CCCCN)C(N)=O` [Antennapedia43-58, reference compound]?
A: Km (Jurkat cells [1]): 427 µM; Vmax (Jurkat cells [1]): 0.41; rate of entering cells, fold faster than Tat47-59 (Jurkat cells [1]): approximately 2 fold

Q: Which results are given for `N=C(N)NCCC[C@H](NC(=O)[C@H](CCCNC(=N)N)NC(=O)[C@H](CCCNC(=N)N)NC(=O)[C@H](CCCNC(=N)N)NC(=O)[C@H](CCCNC(=N)N)NC(=O)[C@H](CCCNC(=N)N)NC(=O)[C@H](CCCNC(=N)N)NC(=O)[C@H](CCCNC(=N)N)NC(=O)[C@H](CCCNC(=N)N)NC(=O)CCCCCNC(=S)Nc1ccc2c(c1)C(=O)OC21c2ccc(O)cc2Oc2cc(O)ccc21)C(N)=O` (single isomer, unassigned) [R9]?
A: Km values fold greater / fold better than Tat49-57 (Jurkat cells [1]; Discussion): 30 fold; Km (Jurkat cells [1]): 44 µM; Vmax (Jurkat cells [1]): 0.37; rate of entering cells, fold faster than Tat47-59 (Jurkat cells [1]): ~20 fold

Q: For `C[C@H](NC(=O)[C@H](CCCNC(=N)N)NC(=O)[C@H](CCCNC(=N)N)NC(=O)[C@H](CCCCN)NC(=O)[C@H](CCCCN)NC(=O)[C@H](CCCNC(=N)N)NC(=O)CCCCCNC(=S)Nc1ccc2c(c1)C(=O)OC21c2ccc(O)cc2Oc2cc(O)ccc21)C(=O)N[C@@H](CCCNC(=N)N)C(=O)N[C@@H](CCCNC(=N)N)C(=O)N[C@@H](CCCNC(=N)N)C(N)=O` [A-54] ({FITC-Ahx}-RKKRRARRR-NH2), which “cellular uptake relative to Tat49-57” value (Jurkat cells [2]) is on record?
A: Its value is “modest decrease in cellular internalization”.

Q: `N=C(N)NCCC[C@@H](NC(=O)[C@@H](CCCCN)NC(=O)[C@@H](CCCCN)NC(=O)[C@@H](CCCNC(=N)N)NC(=O)[C@@H](CCCNC(=N)N)NC(=O)[C@@H](CCC(N)=O)NC(=O)[C@@H](CCCNC(=N)N)NC(=O)[C@@H](CCCNC(=N)N)NC(=O)[C@@H](CCCNC(=N)N)NC(=O)CCCCCNC(=S)Nc1ccc2c(c1)C(=O)OC21c2ccc(O)cc2Oc2cc(O)ccc21)C(N)=O` [d-Tat57-49, F1-ahx-rrrqrrkkr] was tested. Which “cellular uptake relative to Tat49-57” value (Jurkat cells [2]) did it give?
A: The value was “more effective at entering Jurkat cells then Tat49-57”.

Q: With `N=C(N)NCCC[C@@H](NC(=O)[C@@H](CCCNC(=N)N)NC(=O)[C@@H](CCCNC(=N)N)NC(=O)[C@@H](CCC(N)=O)NC(=O)[C@@H](CCCNC(=N)N)NC(=O)[C@@H](CCCNC(=N)N)NC(=O)[C@@H](CCCCN)NC(=O)[C@@H](CCCCN)NC(=O)[C@@H](CCCNC(=N)N)NC(=O)CCCCCNC(=S)Nc1ccc2c(c1)C(=O)OC21c2ccc(O)cc2Oc2cc(O)ccc21)C(N)=O` [d-Tat49-57, F1-ahx-rkkrrqrrr] as the compound, how does the “cellular uptake relative to Tat49-57” value (Jurkat cells [2]) read?
A: Its value is “more effective at entering Jurkat cells then Tat49-57”.

Q: With `CC1(C)O[C@@H]2C[C@H]3[C@@H]4CCC5=CC(=O)C=C[C@]5(C)[C@@]4(F)[C@@H](O)C[C@]3(C)[C@]2(C(=O)CO)O1` [triamcinolone acetonide, reference compound] as the compound, how does the “reduction in ear inflammation” value ([3]; 0.1% topical) read?
A: Its value is 34.1%±6.3.

Q: For `N=C(N)NCCC[C@H](NC(=O)[C@H](CCC(N)=O)NC(=O)[C@H](CCCNC(=N)N)NC(=O)[C@H](CCCNC(=N)N)NC(=O)[C@H](CCCCN)NC(=O)[C@H](CCCCN)NC(=O)[C@H](CCCNC(=N)N)NC(=O)CCCCCNC(=S)Nc1ccc2c(c1)C(=O)OC21c2ccc(O)cc2Oc2cc(O)ccc21)C(N)=O` [Tat49-55, Fl-ahx-RKKRRQR] ({FITC-Ahx}-RKKRRQR-NH2), which “additional loss of intracellular fluorescence from the one amino acid truncated analogs” value (Jurkat cells [2]) is on record?
A: Its value is 60%.

Q: Which “cellular uptake relative to Tat49-57” value (Jurkat cells [2]) does the source give for `N=C(N)NCCC[C@H](NC(=O)[C@H](CCCCN)NC(=O)[C@H](CCCCN)NC(=O)[C@H](CCCNC(=N)N)NC(=O)[C@H](CCCNC(=N)N)NC(=O)[C@H](CCC(N)=O)NC(=O)[C@H](CCCNC(=N)N)NC(=O)[C@H](CCCNC(=N)N)NC(=O)[C@H](CCCNC(=N)N)NC(=O)CCCCCNC(=S)Nc1ccc2c(c1)C(=O)OC21c2ccc(O)cc2Oc2cc(O)ccc21)C(N)=O` [Tat57-49] here?
A: The value was “more effective at entering Jurkat cells then Tat49-57”.

Q: `N=C(N)NCCC[C@H](NC(=O)[C@H](CCCNC(=N)N)NC(=O)[C@H](CCCNC(=N)N)NC(=O)[C@H](CCC(N)=O)NC(=O)[C@H](CCCNC(=N)N)NC(=O)[C@H](CCCNC(=N)N)NC(=O)[C@H](CCCCN)NC(=O)CCCCCNC(=S)Nc1ccc2c(c1)C(=O)OC21c2ccc(O)cc2Oc2cc(O)ccc21)C(N)=O` [Tat51-57, Fl-ahx-KRRQRRR] ({FITC-Ahx}-KRRQRRR-NH2) was tested. Which “additional loss of intracellular fluorescence from the one amino acid truncated analogs” value (Jurkat cells [2]) did it give?
A: Its value is “did not further diminish the amount of internalization”.

Q: `N=C(N)NCCC[C@H](NC(=O)[C@H](CCCNC(=N)N)NC(=O)[C@H](CCCNC(=N)N)NC(=O)[C@H](CCC(N)=O)NC(=O)[C@H](CCCNC(=N)N)NC(=O)[C@H](CCCNC(=N)N)NC(=O)[C@H](CCCCN)NC(=O)[C@H](CCCCN)NC(=O)[C@H](CCCNC(=N)N)NC(=O)CCCCCNC(=S)Nc1ccc2c(c1)C(=O)OC21c2ccc(O)cc2Oc2cc(O)ccc21)C(N)=O` [Tat49-57, reference compound] was tested. Which Km (Jurkat cells [1]) did it give?
A: Its Km is 770 µM.

Q: What about the Vmax (Jurkat cells [1]) of the same compound?
A: Its Vmax is 0.38.

Q: And the “cellular uptake relative to Tat49-57” value (Jurkat cells [2])?
A: Its value is “between that of R6 and R7”.

Q: With “R7 (SEQ ID NO:3): heptamer that consists of L-arginine residues; SEQ ID NO:3 (RRRRRRR)” as the compound, how does the “reduction in ear inflammation” value ([3]; 1% topical, 1, 5 and 20 h after restimulation, measured 24 hours) read?
A: Its value is “No reduction of inflammation was observed”.
